The record followed here is US7531565B2, “Imidazolidin-2-one derivatives as selective androgen receptor modulators (SARMS)” (Janssen Pharmaceutica, N.V., priority 2004, dated 2009).

Test [1] addresses T1, androgen receptor (Rattus norvegicus, UniProt P15207).
T1 sequence (P15207 1-902): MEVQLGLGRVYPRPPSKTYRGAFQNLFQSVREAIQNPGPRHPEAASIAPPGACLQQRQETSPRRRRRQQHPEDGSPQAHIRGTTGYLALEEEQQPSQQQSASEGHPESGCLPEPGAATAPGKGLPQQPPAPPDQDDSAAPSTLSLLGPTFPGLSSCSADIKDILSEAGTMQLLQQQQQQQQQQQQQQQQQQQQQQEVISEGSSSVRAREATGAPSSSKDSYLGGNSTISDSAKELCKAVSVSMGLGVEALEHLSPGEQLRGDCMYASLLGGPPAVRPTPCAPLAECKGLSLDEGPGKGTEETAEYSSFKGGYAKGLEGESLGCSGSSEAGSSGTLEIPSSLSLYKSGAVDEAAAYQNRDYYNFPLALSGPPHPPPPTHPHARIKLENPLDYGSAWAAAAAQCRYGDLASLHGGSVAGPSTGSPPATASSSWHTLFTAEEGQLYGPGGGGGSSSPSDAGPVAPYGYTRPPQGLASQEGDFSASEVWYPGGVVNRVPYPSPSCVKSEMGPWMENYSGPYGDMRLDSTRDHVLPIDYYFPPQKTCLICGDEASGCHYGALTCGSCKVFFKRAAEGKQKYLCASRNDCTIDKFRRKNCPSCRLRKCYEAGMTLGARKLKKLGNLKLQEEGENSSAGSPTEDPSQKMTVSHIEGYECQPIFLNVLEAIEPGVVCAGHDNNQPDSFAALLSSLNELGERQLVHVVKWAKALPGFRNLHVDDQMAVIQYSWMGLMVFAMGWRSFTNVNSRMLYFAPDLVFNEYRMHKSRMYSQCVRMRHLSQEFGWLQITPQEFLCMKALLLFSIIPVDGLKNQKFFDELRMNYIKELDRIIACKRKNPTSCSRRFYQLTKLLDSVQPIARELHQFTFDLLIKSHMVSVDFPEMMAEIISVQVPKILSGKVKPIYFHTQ
Kind of test: COS-7 whole-cell androgen receptor binding assay, adenovirus transduction. On the set-up: expressed in transfected cells. The note with it: for % Inhibition @ 3 μM: 3 μM (3000 nM), COS-7 cells, [3H]R1881, AdEasy+rAR; for inhibition at 3 µM: read-out: % Inhibition @ 3 μM. Here is the method: COS-7 cells were plated in 96-well plates at 20,000 cells per well, in a solution of DMEM/F12 (GIBCO) containing 10% (v/v) charcoal-treated fetal bovine serum (Hyclone) and lacking phenol red. The cells were then incubated overnight at 37° C. in 5% (v/v) humidified CO2.
Test compound solutions were prepared by diluting the test compound in 100% (v/v) DMSO, if necessary. Each dilution yielded a solution which was 625× the final desired test concentration.
Next, 1 mL of DMEM/F12 lacking phenol red was pipetted into each of the wells of a 2-mL 96-well assay block. Then 4 μL of the 625× test compound dilutions were pipetted into each well of the assay block. The wells were carefully mixed by pipette.
In a 15 mL or 50 mL sterile centrifuge tube, a 2.5 nM dilution of tritiated methyl-trienolone in DMEM/F12 lacking phenol red ([^3H]R1881; Perkin-Elmer) was prepared.
In a 15 mL or 50 mL sterile centrifuge tube, a dilution in DMEM/F12 of the adenovirus AdEasy+rAR at a moi of 1:50 per well was prepared.
The medium was removed from the 96-well plates by inversion and the plates dried very briefly, inverted, on a sterile towel. As soon as possible after medium removal, 40 μL of the diluted test compound was added to each well, in duplicate. To each well was then added 40 μL of the 2.5 nM [^3H]R1881 and 20 μL of the diluted adenovirus. The plates were then incubated for 48 hours at 37° C. in 5% (v/v) humidified CO2.
The medium was removed from the above incubated plates by inversion and dried. Each well was then washed with 0.35 mL of 1×PBS. The PBS was then removed from the plates by inversion and the plates dried.
To each well was then added 50 μL of 0.5% (v/v) Triton X-100 (Sigma) in 1×PBS and the plates placed on a rotary shaker for 5 min. The contents of each well were then transferred to an OptiPlate-96 (Packard) scintillation plate. To each well was then added 0.2 mL of Microscint-20 (Packard) and the wells counted on a TopCount (Packard).
Percent inhibition was determined by testing dilutions of the test compound (usually duplicates of 10 μM) in the binding assay. Counts per well were measured and percents of inhibition determined. Androgen receptor binding IC50s were determined by testing serial dilutions of the test compound (usually duplicate ten half-log dilutions starting at 10 μM) in the binding assay. Counts per well were measured and IC50s determined by linear regression.
Representative compounds of the present invention were tested for binding to the androgen receptor according to the procedure described above with results as listed in Table C. Unless otherwise noted, COS binding % inhibition was determined using a concentration of 3000 nM. For compounds tested more than once, each result is listed separately in Table 3 below.

Test [2] has as its target T1, androgen receptor. Kind of test: Androgen receptor binding using rat ventral prostate cytosol. On the set-up: Male Sprague Dawley or Wistar rats (Charles River, 200-300 g) were used for each preparation; from tissue; host or cells: ventral prostate cytosol of castrated male Sprague Dawley or Wistar rats.

With `COC(=O)C1(C)CN(c2ccccc2)C(=O)N1` (racemic) [Compound 4b], the “% Inhibition @ 3 μM” value on androgen receptor [1] is 16%; on androgen receptor [2], −71%.

Turning to `COC(=O)C1(C)CN(c2ccc(OC)cc2)C(=O)N1` (racemic) [Compound 4c], the figures for the “% Inhibition @ 3 μM” value on androgen receptor [1] and at androgen receptor [2] were −8% and −36%, respectively.

Turning to `COC(=O)C1(C)CN(c2ccc(Cl)c(C(F)(F)F)c2)C(=O)N1` (racemic) [Compound 4d], the “% Inhibition @ 3 μM” value was −30% on androgen receptor [1] and 24% on androgen receptor [2].

Regarding `COC(=O)C1(C)CN(c2ccc(C#N)c(C(F)(F)F)c2)C(=O)N1` (racemic) [Compound 4e], the “% Inhibition @ 3 μM” value on androgen receptor [1] is 27%; at androgen receptor [2] it was −68%.

For the molecule `CC1(C(=O)O)CN(c2ccccc2)C(=O)N1` (racemic) [Compound 5b], the “% Inhibition @ 3 μM” value is reported as 15% at androgen receptor [1] and −110% on androgen receptor [2].

For the molecule `COc1ccc(N2CC(C)(C(=O)O)NC2=O)cc1` (racemic) [Compound 5c], the entries for the “% Inhibition @ 3 μM” value on androgen receptor [1] and on androgen receptor [2] were −11% and −21%, respectively.

With `CC1(C(=O)O)CN(c2ccc(Cl)c(C(F)(F)F)c2)C(=O)N1` (racemic) [Compound 5d], the “% Inhibition @ 3 μM” value is recorded as −26% at androgen receptor [1] and 28% at androgen receptor [2].

On to `CC1(C(=O)Nc2ccccc2)CN(c2ccccc2)C(=O)N1` (racemic) [Compound 6b], for which the “% Inhibition @ 3 μM” value was 22% on androgen receptor [1] and −68% on androgen receptor [2].

Take `COc1ccc(N2CC(C)(C(=O)Nc3ccc(C#N)c(C(F)(F)F)c3)NC2=O)cc1` (racemic) [Compound 6c]: the entries for the “% Inhibition @ 3 μM” value on androgen receptor [1] and at androgen receptor [2] were 24% and 29%, respectively.

In the case of `CC1(C(=O)Nc2ccc(C#N)c(C(F)(F)F)c2)CN(c2ccccc2)C(=O)N1` (racemic) [Compound 6d], the “% Inhibition @ 3 μM” value at androgen receptor [1] is 40%; on androgen receptor [2], 1%.

Take `CC1(C(=O)Nc2ccc([N+](=O)[O-])c(C(F)(F)F)c2)CN(c2ccccc2)C(=O)N1` (racemic) [Compound 6e]: the figures for the “% Inhibition @ 3 μM” value at androgen receptor [1] and at androgen receptor [2] were 37% and −71%, respectively.

With `CC1(C(=O)Nc2cccc(C(F)(F)F)c2)CN(c2ccc(F)cc2)C(=O)N1` (racemic) [Compound 6g], the results for the “% Inhibition @ 3 μM” value at androgen receptor [1] and on androgen receptor [2] were −40% and 23%, respectively.

`CC1(C(=O)Nc2cc(C(F)(F)F)cc(C(F)(F)F)c2)CN(c2ccc(F)cc2)C(=O)N1` (racemic) [Compound 6h]: the “% Inhibition @ 3 μM” value at androgen receptor [1] is reported as 76%; at androgen receptor [2], −17%.

As for `CC1(C(=O)Nc2ccc(C(F)(F)F)nc2)CN(c2ccccc2)C(=O)N1` (racemic) [Compound 6j], the “% Inhibition @ 3 μM” value on androgen receptor [1] is 18%; on androgen receptor [2], −75%.

By inhibition is commonly meant the change of the read-out against control, counted positive when it falls. `CC1(C(=O)O)CN(c2ccc(F)cc2)C(=O)N1` (centres unmarked) [Compound 5a, 1-(4-Fluoro-phenyl)-4-methyl-2-oxo-imidazolidine-4-carboxylic acid]: the inhibition at 3 µM was -14% on androgen receptor [1] and 33% on androgen receptor [2].

On to `CC1(C(=O)Nc2ccc(C#N)c(C(F)(F)F)c2)CN(c2ccc(F)cc2)C(=O)N1` (centres unmarked) [Compound 6a, 1-(4-Fluoro-phenyl)-4-methyl-2-oxo-imidazolidine-4-carboxylic acid (4-cyano-3-trifluoromethyl-phenyl)-amide], for which the inhibition at 3 µM at androgen receptor [1] was determined as 43%; on androgen receptor [2], 63%.
